Reference: US10131652B2, “Pyrimidinyloxy benzene derivatives as herbicides” (E. I. DU PONT DE NEMOURS AND COMPANY, priority 2014, dated 2018)
Where two headings read alike, the source gives them in different places.

Assays:
Assay in all cases: Test E pre-/postemergence plant response
Format in all cases: in vivo
[1] = test system: Italian ryegrass (Lolium multiflorum); details: scale 0 to 100, read-out: Plant response rating, Ryegrass, Italian; for pest or weed control at 16 g/ha: 16 g ai/ha; for pest or weed control at 31 g/ha: 31 g ai/ha; for pest or weed control at 62 g/ha: 62 g ai/ha; for pest or weed control at 125 g/ha: 125 g ai/ha
Method in brief: (§1)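 Pre-emergence: seeds sown in silt loam soil and sprayed with test chemicals in a non-phytotoxic solvent/surfactant mix. Post-emergence: plants at 2–18 cm (1- to 4-leaf stage) in peat/vermiculite medium treated with the same formulation. Visual rating versus controls after 7–21 days, 0 (no effect) to 100 (complete control).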

[2] = test system: deadnettle (henbit deadnettle, Lamium amplexicaule); details: scale 0 to 100, read-out: Plant response rating, Deadnettle; for pest or weed control at 16 g/ha: 16 g ai/ha; for pest or weed control at 31 g/ha: 31 g ai/ha; for pest or weed control at 62 g/ha: 62 g ai/ha; for pest or weed control at 125 g/ha: 125 g ai/ha
Method in brief: as §1

[3] = test system: field poppy (Papaver rhoeas); details: scale 0 to 100, read-out: Plant response rating, Field Poppy; for pest or weed control at 16 g/ha: 16 g ai/ha; for pest or weed control at 31 g/ha: 31 g ai/ha; for pest or weed control at 62 g/ha: 62 g ai/ha; for pest or weed control at 125 g/ha: 125 g ai/ha
Method in brief: as §1

[4] = test system: field violet (Viola arvensis); details: scale 0 to 100, read-out: Plant response rating, Field Violet; for pest or weed control at 16 g/ha: 16 g ai/ha; for pest or weed control at 31 g/ha: 31 g ai/ha; for pest or weed control at 62 g/ha: 62 g ai/ha; for pest or weed control at 125 g/ha: 125 g ai/ha
Method in brief: as §1

[5] = test system: green foxtail (Setaria viridis); details: scale 0 to 100, read-out: Plant response rating, Foxtail, Green; for pest or weed control at 16 g/ha: 16 g ai/ha; for pest or weed control at 31 g/ha: 31 g ai/ha; for pest or weed control at 62 g/ha: 62 g ai/ha; for pest or weed control at 125 g/ha: 125 g ai/ha
Method in brief: as §1

[6] = test system: lambsquarters (Chenopodium album); details: scale 0 to 100, read-out: Plant response rating, Lambsquarters; for pest or weed control at 16 g/ha: 16 g ai/ha; for pest or weed control at 31 g/ha: 31 g ai/ha; for pest or weed control at 62 g/ha: 62 g ai/ha; for pest or weed control at 125 g/ha: 125 g ai/ha
Method in brief: as §1

[7] = test system: pigweed (Amaranthus retroflexus); details: scale 0 to 100, read-out: Plant response rating, Pigweed; for pest or weed control at 16 g/ha: 16 g ai/ha; for pest or weed control at 31 g/ha: 31 g ai/ha; for pest or weed control at 62 g/ha: 62 g ai/ha; for pest or weed control at 125 g/ha: 125 g ai/ha
Method in brief: as §1

[8] = test system: spring wheat (Triticum aestivum); details: scale 0 to 100, read-out: Plant response rating, Wheat, Spring; for plant injury at 16 g/ha: 16 g ai/ha; for plant injury at 62 g/ha: 62 g ai/ha; for plant injury at 125 g/ha: 125 g ai/ha
Method in brief: as §1

[9] = test system: wild buckwheat (Polygonum convolvulus); details: Fallopia convolvulus, scale 0 to 100, read-out: Plant response rating, Buckwheat, Wild; for pest or weed control at 16 g/ha: 16 g ai/ha; for pest or weed control at 31 g/ha: 31 g ai/ha; for pest or weed control at 62 g/ha: 62 g ai/ha; for pest or weed control at 125 g/ha: 125 g ai/ha
Method in brief: as §1

[10] = test system: wild radish (Raphanus raphanistrum); details: scale 0 to 100, read-out: Plant response rating, Radish, Wild; for pest or weed control at 16 g/ha: 16 g ai/ha; for pest or weed control at 31 g/ha: 31 g ai/ha; for pest or weed control at 62 g/ha: 62 g ai/ha; for pest or weed control at 125 g/ha: 125 g ai/ha
Method in brief: as §1

[11] = test system: winter wheat (Triticum aestivum); details: scale 0 to 100, read-out: Plant response rating, Wheat, Winter; for plant injury at 16 g/ha: 16 g ai/ha; for plant injury at 62 g/ha: 62 g ai/ha; for plant injury at 125 g/ha: 125 g ai/ha
Method in brief: as §1

[12] = post-emergence, 31 g ai/ha, Postemergence

`FC(F)c1cc(-c2ccccc2Oc2ncc(Cl)cn2)on1` [Compound 53, 5-chloro-2-[2-[3-(difluoromethyl)-5-isoxazolyl]phenoxy]pyrimidine] gave a pest or weed control at 16 g/ha ([1]; post-emergence, Postemergence) of 0%, a pest or weed control at 31 g/ha ([1]; post-emergence, Postemergence) of 0% and a pest or weed control at 62 g/ha ([1]; post-emergence, Postemergence) of 5%. The pest or weed control at 125 g/ha ([1]; post-emergence, Postemergence) was 5%, the pest or weed control at 16 g/ha ([1]; pre-emergence, Preemergence) was 10% and the pest or weed control at 31 g/ha ([1]; pre-emergence, Preemergence) was 10%. It also gave a pest or weed control at 62 g/ha ([1]; pre-emergence, Preemergence) of 25%, a pest or weed control at 125 g/ha ([1]; pre-emergence, Preemergence) of 25% and a pest or weed control at 16 g/ha ([2]; post-emergence, Postemergence) of 20%. For the same compound, the pest or weed control at 31 g/ha ([2]; post-emergence, Postemergence) was 30%, the pest or weed control at 62 g/ha ([2]; post-emergence, Postemergence) was 60% and the pest or weed control at 125 g/ha ([2]; post-emergence, Postemergence) was 65%. For the same compound, the pest or weed control at 16 g/ha ([2]; pre-emergence, Preemergence) was 10%, the pest or weed control at 31 g/ha ([2]; pre-emergence, Preemergence) was 10% and the pest or weed control at 62 g/ha ([2]; pre-emergence, Preemergence) was 50%. For the same compound, the pest or weed control at 125 g/ha ([2]; pre-emergence, Preemergence) was 65%, the pest or weed control at 16 g/ha ([3]; post-emergence, Postemergence) was 60% and the pest or weed control at 31 g/ha ([3]; post-emergence, Postemergence) was 65%. It also gave a pest or weed control at 62 g/ha ([3]; post-emergence, Postemergence) of 80%, a pest or weed control at 125 g/ha ([3]; post-emergence, Postemergence) of 80% and a pest or weed control at 16 g/ha ([3]; pre-emergence, Preemergence) of 100%. For the same compound, the pest or weed control at 31 g/ha ([3]; pre-emergence, Preemergence) was 100%, the pest or weed control at 62 g/ha ([3]; pre-emergence, Preemergence) was 100% and the pest or weed control at 125 g/ha ([3]; pre-emergence, Preemergence) was 100%. For the same compound, the pest or weed control at 16 g/ha ([4]; post-emergence, Postemergence) was 25%, the pest or weed control at 31 g/ha ([4]; post-emergence, Postemergence) was 50% and the pest or weed control at 62 g/ha ([4]; post-emergence, Postemergence) was 70%. It also gave a pest or weed control at 125 g/ha ([4]; post-emergence, Postemergence) of 70%, a pest or weed control at 16 g/ha ([4]; pre-emergence, Preemergence) of 50% and a pest or weed control at 31 g/ha ([4]; pre-emergence, Preemergence) of 25%. For the same compound, the pest or weed control at 62 g/ha ([4]; pre-emergence, Preemergence) was 60%, the pest or weed control at 125 g/ha ([4]; pre-emergence, Preemergence) was 100% and the pest or weed control at 16 g/ha ([5]; post-emergence, Postemergence) was 10%. For the same compound, the pest or weed control at 31 g/ha ([5]; post-emergence, Postemergence) was 10%, the pest or weed control at 62 g/ha ([5]; post-emergence, Postemergence) was 10% and the pest or weed control at 125 g/ha ([5]; post-emergence, Postemergence) was 25%. It also gave a pest or weed control at 16 g/ha ([5]; pre-emergence, Preemergence) of 10%, a pest or weed control at 31 g/ha ([5]; pre-emergence, Preemergence) of 10% and a pest or weed control at 62 g/ha ([5]; pre-emergence, Preemergence) of 20%. For the same compound, the pest or weed control at 125 g/ha ([5]; pre-emergence, Preemergence) was 55%, the pest or weed control at 16 g/ha ([6]; post-emergence, Postemergence) was 65% and the pest or weed control at 31 g/ha ([6]; post-emergence, Postemergence) was 70%. For the same compound, the pest or weed control at 62 g/ha ([6]; post-emergence, Postemergence) was 65%, the pest or weed control at 125 g/ha ([6]; post-emergence, Postemergence) was 75% and the pest or weed control at 16 g/ha ([6]; pre-emergence, Preemergence) was 60%. For the same compound, the pest or weed control at 31 g/ha ([6]; pre-emergence, Preemergence) was 75%, the pest or weed control at 62 g/ha ([6]; pre-emergence, Preemergence) was 100% and the pest or weed control at 125 g/ha ([6]; pre-emergence, Preemergence) was 100%. The pest or weed control at 16 g/ha ([7]; post-emergence, Postemergence) was 85%, the pest or weed control at 31 g/ha ([7]; post-emergence, Postemergence) was 85% and the pest or weed control at 62 g/ha ([7]; post-emergence, Postemergence) was 90%. The pest or weed control at 125 g/ha ([7]; post-emergence, Postemergence) was 90%, the pest or weed control at 16 g/ha ([7]; pre-emergence, Preemergence) was 30% and the pest or weed control at 31 g/ha ([7]; pre-emergence, Preemergence) was 20%. The pest or weed control at 62 g/ha ([7]; pre-emergence, Preemergence) was 100%, the pest or weed control at 125 g/ha ([7]; pre-emergence, Preemergence) was 100% and the plant injury at 16 g/ha ([8]; post-emergence, Postemergence) was 10%. The plant injury at 31 g/ha [8, 12] was 10%, the plant injury at 62 g/ha ([8]; post-emergence, Postemergence) was 20% and the plant injury at 125 g/ha ([8]; post-emergence, Postemergence) was 35%. The plant injury at 16 g/ha ([8]; pre-emergence, Preemergence) was 5%, the plant injury at 62 g/ha ([8]; pre-emergence, Preemergence) was 10% and the plant injury at 125 g/ha ([8]; pre-emergence, Preemergence) was 10%. The pest or weed control at 16 g/ha ([9]; post-emergence, Postemergence) was 70%, the pest or weed control at 31 g/ha ([9]; post-emergence, Postemergence) was 65% and the pest or weed control at 62 g/ha ([9]; post-emergence, Postemergence) was 90%. For the same compound, the pest or weed control at 125 g/ha ([9]; post-emergence, Postemergence) was 95%, the pest or weed control at 16 g/ha ([9]; pre-emergence, Preemergence) was 65% and the pest or weed control at 31 g/ha ([9]; pre-emergence, Preemergence) was 100%. For the same compound, the pest or weed control at 62 g/ha ([9]; pre-emergence, Preemergence) was 100%, the pest or weed control at 125 g/ha ([9]; pre-emergence, Preemergence) was 100% and the pest or weed control at 16 g/ha ([10]; post-emergence, Postemergence) was 60%. The pest or weed control at 31 g/ha ([10]; post-emergence, Postemergence) was 60%, the pest or weed control at 62 g/ha ([10]; post-emergence, Postemergence) was 90% and the pest or weed control at 125 g/ha ([10]; post-emergence, Postemergence) was 90%. It also gave a pest or weed control at 16 g/ha ([10]; pre-emergence, Preemergence) of 50%, a pest or weed control at 31 g/ha ([10]; pre-emergence, Preemergence) of 70% and a pest or weed control at 62 g/ha ([10]; pre-emergence, Preemergence) of 100%. It also gave a pest or weed control at 125 g/ha ([10]; pre-emergence, Preemergence) of 90%, a plant injury at 16 g/ha ([11]; post-emergence, Postemergence) of 5% and a plant injury at 31 g/ha [11, 12] of 5%. The plant injury at 62 g/ha ([11]; post-emergence, Postemergence) was 15%, the plant injury at 125 g/ha ([11]; post-emergence, Postemergence) was 35% and the plant injury at 16 g/ha ([11]; pre-emergence, Preemergence) was 15%. It also gave a plant injury at 62 g/ha ([11]; pre-emergence, Preemergence) of 25% and a plant injury at 125 g/ha ([11]; pre-emergence, Preemergence) of 30%.
